# Entries after “also recorded” stand apart in the source; their conditions may differ. Where two headings read alike, the source gives them in different places.
# Assays:
# [1] = in vitro; conditions: human
# [2] = in vitro; conditions: human; remark: listed apart in the source
# [3] = test system: NL4-3ΔEnv-NanoLuc/SARS-CoV-2 (USA-WA1/2020) pseudovirus; assay: microbe, parasite or virus in culture; type: cell-based
# [4] = in vitro; conditions: human; remark: listed apart in the source
# [5] = test system: MERS-CoV, EMC/2012; assay: microbe, parasite or virus in culture; type: cell-based; conditions: Middle East respiratory syndrome-related coronavirus, Calu-3, read-out: IC50, MERS-CoV
# [6] = test system: SARS-CoV-1 Urbani; assay: microbe, parasite or virus in culture; type: cell-based; conditions: Severe acute respiratory syndrome coronavirus, Calu-3, read-out: IC50, SARS-CoV-1 Urbani
# [7] = in vitro; conditions: human; remark: listed apart in the source
# [8] = in vitro; conditions: human; remark: listed apart in the source
# [9] = test system: NL4-3ΔEnv-NanoLuc/MERS-CoV pseudovirus; assay: microbe, parasite or virus in culture; type: cell-based; conditions: Middle East respiratory syndrome-related coronavirus
# [10] = test system: NL4-3ΔEnvLuc/A-MLV pseudovirus; assay: microbe, parasite or virus in culture; type: cell-based, amphotropic murine leukemia virus (A-MLV); conditions: 293T/ACE2, read-out: A-MLV IC50
# [11] = in vitro; conditions: human; remark: listed apart in the source
# [12] = test system: SARS-CoV-2 spike (Wuhan-Hu-1) mediated cell-to-cell fusion, Jurkat donor / 293T/ACE2 acceptor cells; assay: microbe, parasite or virus in culture; type: cell-based; conditions: Severe acute respiratory syndrome coronavirus 2, 4 h; read-out: IC50, cell-to-cell fusion inhibition
# [13] = test system: NL4-3ΔEnv-NanoLuc/SARS-CoV-1 pseudovirus; assay: microbe, parasite or virus in culture; type: cell-based; conditions: Severe acute respiratory syndrome coronavirus
# [14] = molecular target: CYP1A2 (Homo sapiens, UniProt P05177); assay: biochemical
# CYP1A2, sequence (P05177 whole entry): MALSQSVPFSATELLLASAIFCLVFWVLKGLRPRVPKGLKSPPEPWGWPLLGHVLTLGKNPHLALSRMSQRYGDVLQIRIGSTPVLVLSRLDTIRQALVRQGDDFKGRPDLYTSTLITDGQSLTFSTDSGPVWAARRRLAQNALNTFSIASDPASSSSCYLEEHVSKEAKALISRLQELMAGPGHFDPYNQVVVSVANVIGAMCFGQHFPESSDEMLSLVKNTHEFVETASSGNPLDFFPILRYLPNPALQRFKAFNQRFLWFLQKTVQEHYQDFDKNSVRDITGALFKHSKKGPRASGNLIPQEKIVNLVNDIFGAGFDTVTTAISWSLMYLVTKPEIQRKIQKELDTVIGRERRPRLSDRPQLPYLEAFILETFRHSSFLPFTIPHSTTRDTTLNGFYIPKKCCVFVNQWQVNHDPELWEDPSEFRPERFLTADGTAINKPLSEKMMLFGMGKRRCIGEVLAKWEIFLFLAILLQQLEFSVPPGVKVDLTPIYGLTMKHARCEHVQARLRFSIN
# [15] = Plasma protein binding; conditions: human, pH 7.4
# [16] = pH 7.4
# [17] = in vitro; conditions: human, microsomes, pH 7.4
# [18] = molecular target: CYP2B6 (Homo sapiens, UniProt P20813); assay: biochemical
# CYP2B6, sequence (P20813 whole entry): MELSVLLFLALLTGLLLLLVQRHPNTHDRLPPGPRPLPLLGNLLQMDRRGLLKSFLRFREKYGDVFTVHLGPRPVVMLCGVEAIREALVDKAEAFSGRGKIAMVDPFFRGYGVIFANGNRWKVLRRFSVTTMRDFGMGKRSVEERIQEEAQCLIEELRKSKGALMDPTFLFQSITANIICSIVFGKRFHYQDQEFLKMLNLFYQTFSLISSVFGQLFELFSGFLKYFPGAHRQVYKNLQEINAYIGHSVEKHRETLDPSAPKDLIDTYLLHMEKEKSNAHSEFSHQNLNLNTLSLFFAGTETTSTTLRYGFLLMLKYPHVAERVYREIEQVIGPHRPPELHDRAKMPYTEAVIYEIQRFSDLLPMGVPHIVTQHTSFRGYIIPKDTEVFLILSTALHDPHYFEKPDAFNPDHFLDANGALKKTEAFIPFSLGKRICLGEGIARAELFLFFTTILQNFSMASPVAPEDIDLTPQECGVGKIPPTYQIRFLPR
# [19] = molecular target: CYP2D6 (Homo sapiens, UniProt P10635); assay: biochemical
# CYP2D6, sequence (P10635 whole entry): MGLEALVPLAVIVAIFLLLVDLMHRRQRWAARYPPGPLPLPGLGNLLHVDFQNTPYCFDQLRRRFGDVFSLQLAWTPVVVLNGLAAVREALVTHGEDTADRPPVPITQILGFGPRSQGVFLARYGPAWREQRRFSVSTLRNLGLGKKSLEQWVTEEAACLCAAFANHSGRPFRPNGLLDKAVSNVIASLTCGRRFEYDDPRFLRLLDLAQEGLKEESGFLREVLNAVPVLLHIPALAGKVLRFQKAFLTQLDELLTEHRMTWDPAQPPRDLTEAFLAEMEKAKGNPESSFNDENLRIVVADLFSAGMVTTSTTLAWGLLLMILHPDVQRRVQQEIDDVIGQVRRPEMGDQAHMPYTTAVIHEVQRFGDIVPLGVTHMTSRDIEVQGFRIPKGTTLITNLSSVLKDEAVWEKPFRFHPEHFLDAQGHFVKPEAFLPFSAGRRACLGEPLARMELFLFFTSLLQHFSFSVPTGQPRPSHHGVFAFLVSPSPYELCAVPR
# [20] = test system: SARS-CoV-2 strains, SARS-COV-1, and MERS-CoV pseudoviruses; assay: organism not typed; type: cell-based; conditions: Calu-3, read-out: IC50, range over all the viral clones evaluated
# [21] = molecular target: CYP2C9 (Homo sapiens, UniProt P11712); assay: biochemical
# CYP2C9, sequence (P11712 whole entry): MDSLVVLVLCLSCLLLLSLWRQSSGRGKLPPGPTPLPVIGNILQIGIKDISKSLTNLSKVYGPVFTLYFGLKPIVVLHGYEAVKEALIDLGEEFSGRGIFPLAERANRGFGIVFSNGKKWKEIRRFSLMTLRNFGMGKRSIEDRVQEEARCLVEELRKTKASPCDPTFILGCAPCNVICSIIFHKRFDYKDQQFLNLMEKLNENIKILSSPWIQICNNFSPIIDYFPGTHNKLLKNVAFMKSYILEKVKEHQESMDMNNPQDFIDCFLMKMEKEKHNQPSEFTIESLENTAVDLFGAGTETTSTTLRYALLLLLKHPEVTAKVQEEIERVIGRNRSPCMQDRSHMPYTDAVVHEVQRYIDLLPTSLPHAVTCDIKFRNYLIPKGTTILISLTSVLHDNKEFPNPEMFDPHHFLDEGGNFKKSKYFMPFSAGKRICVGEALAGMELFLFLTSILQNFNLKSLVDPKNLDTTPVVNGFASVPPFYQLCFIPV
# [22] = molecular target: CYP2C19 (Homo sapiens, UniProt P33261); assay: biochemical
# CYP2C19, sequence (P33261 whole entry): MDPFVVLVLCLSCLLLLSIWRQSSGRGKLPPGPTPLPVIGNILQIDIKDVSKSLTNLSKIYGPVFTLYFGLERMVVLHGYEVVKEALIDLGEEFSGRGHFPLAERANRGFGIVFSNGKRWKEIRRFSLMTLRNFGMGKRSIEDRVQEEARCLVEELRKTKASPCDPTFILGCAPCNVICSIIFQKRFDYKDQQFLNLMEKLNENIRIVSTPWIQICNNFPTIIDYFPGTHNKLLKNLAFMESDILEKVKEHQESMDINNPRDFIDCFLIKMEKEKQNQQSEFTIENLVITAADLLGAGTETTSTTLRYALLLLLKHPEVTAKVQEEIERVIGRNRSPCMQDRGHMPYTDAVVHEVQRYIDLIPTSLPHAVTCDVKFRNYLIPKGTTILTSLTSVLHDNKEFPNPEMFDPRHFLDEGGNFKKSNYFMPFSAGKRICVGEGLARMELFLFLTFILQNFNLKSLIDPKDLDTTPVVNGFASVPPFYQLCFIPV
# [23] = molecular target: CYP2C8 (Homo sapiens, UniProt P10632); assay: biochemical
# CYP2C8, sequence (P10632 whole entry): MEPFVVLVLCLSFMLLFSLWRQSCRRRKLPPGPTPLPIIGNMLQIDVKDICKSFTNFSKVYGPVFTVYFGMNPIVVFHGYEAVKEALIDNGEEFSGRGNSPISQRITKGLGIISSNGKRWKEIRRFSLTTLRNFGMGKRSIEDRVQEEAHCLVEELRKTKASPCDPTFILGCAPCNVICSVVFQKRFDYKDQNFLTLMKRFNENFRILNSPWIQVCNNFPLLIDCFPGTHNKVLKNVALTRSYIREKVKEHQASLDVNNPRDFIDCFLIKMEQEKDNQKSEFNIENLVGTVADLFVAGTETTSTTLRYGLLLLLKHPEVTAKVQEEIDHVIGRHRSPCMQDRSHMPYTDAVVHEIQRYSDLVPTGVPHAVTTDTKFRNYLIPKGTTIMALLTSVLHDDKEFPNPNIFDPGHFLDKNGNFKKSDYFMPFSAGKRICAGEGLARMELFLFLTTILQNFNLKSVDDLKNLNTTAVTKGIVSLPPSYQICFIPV
# [24] = physchem; conditions: pH 7.4
# [25] = in vitro; conditions: human; remark: listed apart in the source
# [26] = Caco-2, read-out: MERS-CoV IC50
# [27] = Calu-3, read-out: MERS-CoV IC50
# [28] = Calu-3, read-out: SARS-CoV-2 USA-WA1/2020 IC50
# [29] = 293T/ACE2, read-out: SARS-CoV-1 IC50
# [30] = A549-ACE2, read-out: SARS-CoV-1 IC50
# [31] = Calu-3, read-out: SARS-CoV-1 IC50
compound,measurement,setting,value
Cc1cc2nc3s/c(=C\c4ccc(-c5ccc(OC(F)(F)F)cc5)o4)c(=O)n3c2cc1C [NBCoV82],CC50,[1],> 50 µM
same,CC50,[2],> 50 µM
same,IC50,"[3]; Pseudovirus, 293T/ACE2",> 10 µM
same,IC50,"[3]; Pseudovirus, A549-ACE2",> 10 µM
"CCC(CC)COC(=O)[C@H](C)N[P@](=O)(OC[C@H]1O[C@@](C#N)(c2ccc3c(N)ncnn23)[C@H](O)[C@@H]1O)Oc1ccccc1 [Remdesivir, reference compound]",CC50,[4],> 50 µM
same,IC50,[5],17.8 µM
same,IC50,[6],1.08 µM
O=C(O)c1ccc(Cl)c(-c2ccc(/C=c3/sc4nc5ccccc5n4c3=O)o2)c1 [NBCoV74],CC50,[1],> 50 µM
same,CC50,[2],> 50 µM
same,IC50,"[3]; Pseudovirus, 293T/ACE2",> 10 µM
same,IC50,"[3]; Pseudovirus, A549-ACE2",> 10 µM
Cc1cc(C)c2nc3s/c(=C\c4ccc(-c5ccc(Cl)c(C(=O)O)c5)o4)c(=O)n3c2c1 [NBCoV37],CC50,[7],> 50 µM
same,CC50,[1],~50 µM
same,CC50,[8],48 ± 2 µM
same,IC50,[9]; [26],0.161 ± 0.053 µM
same,IC50,[9]; [27],0.877 ± 0.05 µM
same,IC50,"[9]; MRC5, read-out: MERS-CoV IC50",0.229 ± 0.02 µM
same,IC50,"[9]; read-out: MERS-CoV IC50, range over both cell lines",0.161 to 0.229 µM
same,IC50,[10],1.51 ± 0.088 µM
same,CC50,[2],42.5 ± 2 µM
same,IC50,[3]; [28],0.368 ± 0.045 µM
same,IC50,"[3]; Pseudovirus, 293T/ACE2",0.066 ± 0.002 µM
same,IC50,"[3]; Pseudovirus, 293T/ACE2, read-out: IC50, range over both cell lines",0.066 to 0.198 µM
same,IC50,"[3]; Pseudovirus, A549-ACE2",0.145 ± 0.012 µM
same,CC50,[11],> 50 µM
same,IC50,[12],1.4 µM
same,IC50,[13]; [29],0.34 ± 0.034 µM
same,IC50,[13]; [30],0.095 ± 0.001 µM
same,IC50,[13]; [31],1 ± 0.132 µM
O=C(O)c1ccc(-c2ccc(/C=c3/sc4nc5ccccc5n4c3=O)o2)cc1Cl [NBCoV75],CC50,[1],> 50 µM
same,CC50,[2],> 50 µM
same,IC50,"[3]; Pseudovirus, 293T/ACE2",5.2 ± 0.6 µM
same,IC50,"[3]; Pseudovirus, A549-ACE2",3.3 ± 0.7 µM
O=C(O)c1cc(C(=O)O)cc(-c2ccc(/C=c3/sc4nc5ccccc5n4c3=O)o2)c1 [NBCoV76],CC50,[1],> 50 µM
same,CC50,[2],> 50 µM
same,IC50,"[3]; Pseudovirus, 293T/ACE2",> 10 µM
same,IC50,"[3]; Pseudovirus, A549-ACE2",> 10 µM
Cc1cc2nc3s/c(=C/c4ccc(-c5cccc(C(=O)O)c5)o4)c(=O)n3c2cc1C [NBCoV63],CC50,[7],50 µM
same,IC50,[14],> 25 µM
same,"fraction unbound at 4 h, 5 µM",[15],< 0.005
same,solubility,[16],low
same,CC50,[1],≥ 50 µM
same,half-life,[17],> 3 h
same,microsomal CLint,[17],3.4 µL/min/mg
same,CC50,[4],> 50 µM
same,IC50,[18],> 25 µM
same,IC50,[19],> 25 µM
same,IC50,[5],8.01 µM
same,IC50,[20],0.12 to 0.22 µM
same,CC50,[8],> 50 µM
same,IC50,[9]; [26],0.075 ± 0.025 µM
same,IC50,[9]; [27],0.22 ± 0.03 µM
same,IC50,"[9]; MRC5, read-out: MERS-CoV IC50",0.102 ± 0.001 µM
same,IC50,[10],0.303 ± 0.029 µM
same,CC50,[2],≥ 50 µM
same,antiviral activity (in words),[3],Active
same,IC50,[3]; [28],0.12 ± 0.006 µM
same,IC50,"[3]; Pseudovirus, 293T/ACE2",0.08 ± 0.007 µM
same,IC50,"[3]; Pseudovirus, A549-ACE2",0.055 ± 0.003 µM
same,IC50,[21],> 25 µM
same,IC50,[22],> 25 µM
same,IC50,[23],> 25 µM
same,solubility,[24],6.25 µM
same,efflux ratio,[25]; Caco-2,42.3
same,Papp A→B,"[25]; Caco-2, pH 7.4",0.00242 ×10⁻⁶ cm/s
same,Papp B→A,"[25]; Caco-2, pH 7.4",0.19 ×10⁻⁶ cm/s
same,CC50,[11],> 50 µM
same,IC50,[12],0.9 µM
same,IC50,[13]; [29],0.11 ± 0.0005 µM
same,IC50,[13]; [30],0.059 ± 0.0015 µM
same,IC50,[13]; [31],0.133 ± 0.028 µM
same,IC50,[6],3.98 µM
Cc1cc(C(=O)O)ccc1-c1ccc(/C=c2\sc3nc4ccccc4n3c2=O)o1 [NBCoV70],CC50,[1],> 50 µM
same,CC50,[2],> 50 µM
same,IC50,"[3]; Pseudovirus, 293T/ACE2",9.5 ± 1 µM
same,IC50,"[3]; Pseudovirus, A549-ACE2",> 10 µM
O=c1/c(=C/c2ccc(-c3ccccc3)o2)sc2nc3ccccc3n12 [NBCoV66],CC50,[1],> 50 µM
same,CC50,[2],> 50 µM
same,antiviral activity (in words),[3],no antiviral activity; also recorded: Inactive
same,IC50,"[3]; Pseudovirus, 293T/ACE2",> 10 µM
same,IC50,"[3]; Pseudovirus, A549-ACE2",> 10 µM
Cc1cc2nc3s/c(=C/c4ccc(-c5ccccc5C(=O)O)o4)c(=O)n3c2cc1C [NBCoV81],CC50,[1],> 50 µM
same,CC50,[2],> 50 µM
same,IC50,"[3]; Pseudovirus, 293T/ACE2",0.387 ± 0.064 µM
same,IC50,"[3]; Pseudovirus, A549-ACE2",0.459 ± 0.023 µM
O=C(O)c1cc(C(=O)O)cc(-c2ccc(C=c3sc4nc5ccccc5n4c3=O)o2)c1 [NBCoV62],CC50,[1],> 50 µM
same,CC50,[2],> 50 µM
same,IC50,"[3]; Pseudovirus, 293T/ACE2",> 10 µM
same,IC50,"[3]; Pseudovirus, A549-ACE2",> 10 µM
COc1cc(/C=c2/sc3nc4ccccc4n3c2=O)ccc1OCc1nnn[nH]1 [NBCoV80],CC50,[1],> 50 µM
same,CC50,[2],> 50 µM
same,IC50,"[3]; Pseudovirus, 293T/ACE2",> 10 µM
same,IC50,"[3]; Pseudovirus, A549-ACE2",> 10 µM

# From PMC10141620 (Viruses, 2023)
